Literature values as cited in patent publication EP4512398A1, “FLURALANER FOR USE IN METHODS OF TREATMENT AND PREVENTION OF SEA LICE INFESTATION IN FISH” (Bimeda Animal Health Limited, priority 2023, dated 2025).

Test system: parasites with resistance to organophosphates, pyrethroids and carbamates
Details: bio-assays, background statement; cited from earlier work

Cc1cc(C2=NOC(c3cc(Cl)cc(Cl)c3)(C(F)(F)F)C2)ccc1C(=O)NCC(=O)NCC(F)(F)F (stereo not shown) [fluralaner, Fluralaner]
efficacy against parasites with resistance to organophosphates, pyrethroids and carbamates: effective
